Patent US20260216347A1, “Substituted Imidazo-Based Compounds as Ligand Directed Degraders of IRAK3” (Celgene Corporation, priority 2022, published 2026)

Tests used:
IRAK3 = molecular target: T1, IRAK3 (Homo sapiens, UniProt Q9Y616); test: IRAK3 biochemical binding assay (LanthaScreen Eu Kinase Binding, TR-FRET)
T1 construct: IRAK Endogenous HTRF Degradation Assay; endogenous in cells
T1 sequence (Q9Y616 1-596): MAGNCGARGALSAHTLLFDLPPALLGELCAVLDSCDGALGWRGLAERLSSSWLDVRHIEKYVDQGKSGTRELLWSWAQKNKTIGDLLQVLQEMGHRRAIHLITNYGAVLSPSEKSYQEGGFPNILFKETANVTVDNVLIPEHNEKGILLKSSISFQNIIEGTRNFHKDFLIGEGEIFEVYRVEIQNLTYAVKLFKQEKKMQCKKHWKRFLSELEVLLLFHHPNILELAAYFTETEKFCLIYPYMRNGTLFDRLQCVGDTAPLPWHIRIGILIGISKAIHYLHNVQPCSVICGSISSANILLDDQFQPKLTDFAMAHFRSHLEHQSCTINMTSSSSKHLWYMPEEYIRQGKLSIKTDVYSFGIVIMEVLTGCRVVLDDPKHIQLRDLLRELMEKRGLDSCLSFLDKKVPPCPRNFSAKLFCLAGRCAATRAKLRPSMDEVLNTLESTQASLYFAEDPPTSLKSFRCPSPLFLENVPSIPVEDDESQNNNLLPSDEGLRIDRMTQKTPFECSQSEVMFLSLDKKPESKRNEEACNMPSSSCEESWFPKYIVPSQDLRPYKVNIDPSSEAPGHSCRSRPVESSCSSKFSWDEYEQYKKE
Experimental: Example B3. IRAK3 Biochemical Binding Assay
The LanthaScreen® Eu Kinase Binding assay was performed as described by the vendor (ThermoFisher Scientific Waltham, MA). Briefly, 100× solutions of compound were prepared in DMSO via serial dilution of the 10 mM stock solution in a 384-well reagent plate using 3-fold intervals to achieve final concentrations. 1 μL of the compound dilution series were added to the corresponding wells of a 384-well reagent plate containing 32.3 μL of 1× buffer (50 mM HEPES pH 7.4, […], 1 mM EGTA, 0.01% Brij-35). 5 μL of the buffer diluted compounds were transferred to the corresponding wells of a 384-well assay plate. 5 μL of 3× tracer was transferred to each well of the assay plate for a final tracer concentration of 10 nM. Finally, 5 μL of the 3×Eu-Anti-GST and IRAK3 mix was transferred to each well for a final concentration of 2 nM and 10 nM respectively. Reactions were allowed to incubate for 1 hour at room temperature. TR-FRET signal of the interaction (λex340/λem 665/λem 615) was read at room temperature with a delay time of 100 ρs and an integration time of 200 ρs using an Envision plate reader. Background corrected emission signal ratios at each compound concentration were used to calculate percentage of inhibition (% Inhibition). Plots of % Inhibition versus inhibitor concentrations were fit according to a dose-response equation (Eq. 1) to generate IC50 and Hill slope values using Dotmatics software (Dotmatics, Bishops Stortford, Hertfordshire, England).
Using these assays, IC50, Dmax, EC50, and DC50 values of the following compounds were determined. Dmax is defined as the maximum percent degradation achieved and DC50 is the concentration at which 50% degradation is achieved.

IRAK3-ePL = molecular target: T2, IRAK3-ePL (Homo sapiens, UniProt Q9Y616); test: IRAK3-ePL overexpressing degradation assay (InCELL Hunter luminescence, dose response); format: cell-based; settings: for IRAK3 ePL degradation Ymin: lowest percentage of target protein remaining following compound treatment; for DC50: read-out: IRAK3 ePL degradation EC50
T2 construct: expressed in transfected cells; host or cells: 293T CRBN OE/GSPT1 G575N KI cells, lentiviral transduction, puromycin selected
Experimental: Example B1. IRAK3-ePL Overexpressing Degradation Assay
Stable cell lines were generated by the following protocol. 3×10^5 Lenti-X 293T cells (Clonetech) were plated in 0.8 mL of media in a 12-well plate and incubated overnight at 37° C./5% CO2. Packaging plasmid (0.4 μg, pMD), envelope plasmid (0.4 μg, pSP), and lentiviral transfer IRAK3-ePL plasmid (0.8 μg, TRAK3 sequence NM_007199.3) were mixed in 0.1 mL of Opti-MEM and incubated for 5 min. Simultaneously, 2.4 μL of Lipofectamine 2000 (Invitrogen) was added to 0.1 mL of Opti-MEM (Gibco) and incubated for 5 min. The plasmid DNA and lipofectamine were combined and the mixture was allowed to incubate for 20 min.DNA:Lipofectamine Opti-MEM mixtures were then added to previously plated cells dropwise and the cells were incubated for ~16 h at 37° C./5% CO2. Following incubation, the media was removed and 1.2 mL of fresh media was added per well. Lenti-X 293T cells were incubated for ~30 h at 37° C./5% CO2. […] Following incubation, media was removed from the Lenti-X 293T wells and passed through a […] filter. Part of the viral supernatant was used to transduce cells and the rest was stored at −80° C. Viruses were then added individually (0.5 mL virus) to each well of the 293T^CRBN OE/GSPT1 G575N KI cells, followed by addition of polybrene (10 mg/mL Millipore) to each well at a final concentration of 5.0 μg/mL. Cells were incubated for ~24 h at 37° C./5% CO2. After aspirating media off plates, cells were washed with DPBS, trypsinized and plated in a 10 cm dish in 15 mL of media and […] puromycin. Following incubation of cells for ~72 h at 37° C./5% CO2, media was aspirated off plates, and cells were washed with DPBS and trypsinized. The cells were plated in a 15 cm dish in 40 mL of media with 1.0 μg/mL Puromycin (Gibco) and incubated for ~72 h at 37° C./5% CO2. Following incubation, media was removed and cells were washed with DPBS and trypsinized. The majority of cells were resuspended in Invitrogen freezing media and stored away (~6-8×10^6 cells/vial).
IRAK3-ePL cellular dose response curve degradation assays were performed by the following protocol. Compounds to be tested were dispensed into a white 384-well tissue-culture treated plate using an acoustic liquid handler. Dilutions were prepared based on a 25 μL assay volume in duplicate 10 point 3-fold serial dilutions starting with a 10 μM dose. Negative control wells were included, which only contain 0.2% DMSO to calculate 100% signal. Positive control wells containing 30 μM Ataluren (luciferase inhibitor) were included to calculate the background signal level. All wells were backfilled to a final DMSO concentration of 0.2% to ensure DMSO uniformity across wells. IRAK3-ePL expressing cells (IRAK3-ePL Lenti-X 293T^CRBN/GSPT1 G575N) were washed, trypsinized, counted, and resuspended in fresh DMEM (Gibco) to give a cell concentration of 200,000 cells/mL. 25 μL of cells (5,000 cells/well) were dispensed into the wells of the 384-well plate prespotted with compounds in the previous step and incubated overnight at 37° C./5% CO2. Following incubation, the 384-well plate was taken out of the incubator and left at room temperature for 30 min. InCELL hunter reagent was prepared according to manufacturer's instructions (EA reagent, lysis buffer, and substrate reagent in a 1:1:4 ratio, Cat #96-0002, DiscoverX), which was added to the 384-well plate 25 μL per well. Following the incubation of the plate for 1 h at room temperature, the luminescence signal was read using a ViewLux plate reader. Data was processed and analyzed in ActivityBase software. In short, the average luminescence values of the positive control wells were subtracted from the rest of the wells for background correction, and all luminescence values were normalized to the DMSO control wells. The average value of the DMSO control wells was set to equal 100% of the relative IRAK3-ePL protein levels. […]

Row | IC50 (IRAK3) [nM] | IRAK3 ePL degradation Ymin (IRAK3-ePL) [%] | DC50 (IRAK3-ePL) [nM] | Structure (SMILES)
1 | 0.05 | – | – | Cc1cc(-c2cnc(Nc3cnn([C@H]4CCCN(CCN5CCN(c6ccc(C7CCC(=O)NC7=O)cc6)CC5)CC4)c3)c3nccn23)c(F)cc1F (single isomer, unassigned) [Compound 111]
2 | 0.48 | – | – | Cc1cc(-c2cnc(Nc3cnn([C@@H]4CCCN(CCN5CCN(c6ccc(C7CCC(=O)NC7=O)cc6)CC5)CC4)c3)c3nccn23)c(F)cc1F (single isomer, unassigned) [Compound 112]
3 | – | 24 | 2.8 | Cc1cc(-c2cnc(Nc3cnn(C4CCN(CCN5CCN(c6ccc(C7CCC(=O)NC7=O)cc6Cl)CC5)CC4)c3)c3nccn23)c(F)cc1F (centres unmarked) [Compound 43, 3-(3-chloro-4-(4-(2-(4-(4-((5-(2,4-difluoro-5-methylphenyl)imdazo [1,2-a]pyrazin-8-yl)amino)-1H-pyrazol-1-yl)piperidin-1-yl)ethyl)piperazin-1-yl)phenyl) piperidine-2,6-dione]
4 | – | 24 | 0.51 | O=C1CCC(c2ccc(N3CCN(CCN4CCC(n5cc(Nc6ncc(C7CC7)n7ccnc67)cn5)CC4)CC3)cc2)C(=O)N1 (centres unmarked) [Compound 46, 3-(4-(4-(2-(4-(4-((5-cyclopropylimidazo[1,2-a]pyrazin-8-yl)amino)-1H-pyrazol-1-yl)piperidin-1-yl)ethyl)piperazin-1-yl)phenyl) piperidine-2,6-dione]
5 | – | 23 | 0.61 | O=C1CCC(c2ccc(N3CCN(CC[C@H]4CC[C@H](n5cc(Nc6ncc(C7CC7)n7ccnc67)cn5)CC4)CC3)cc2)C(=O)N1 (stereo partly drawn) [Compound 47, 3-(4-(4-(2-((trans)-4-(4-((5-cyclopropylimidazo[1,2-a]pyrazin-8-yl)amino)-1H-pyrazol-1-yl)cyclohexyl)ethyl)piperazin-1-yl)phenyl) piperidine-2,6-dione]
6 | – | 24 | 0.77 | CN1CCOc2ccc(-c3cnc(Nc4cnn(C5CCN(CCN6CCN(c7ccc(C8CCC(=O)NC8=O)cc7)CC6)CC5)c4)c4nccn34)cc21 (centres unmarked) [Compound 48, 3-(4-(4-(2-(4-(4-((5-(4-methyl-3,4-dihydro-2H-benzo[b][1,4]oxazin-6-yl)imidazo[1,2-a]pyrazin-8-yl)amino)-1H-pyrazol-1-yl)piperidin-1-yl)ethyl)piperazin-1-yl)phenyl) piperidine-2,6-dione]
7 | – | 24 | 2.4 | Cc1cc(-c2cnc(Nc3cnn(C4CCN(CCN5CCN(c6ccc(C7CCC(=O)NC7=O)cc6F)CC5)CC4)c3)c3nccn23)c(F)cc1F (centres unmarked) [Compound 49, 3-(4-(4-(2-(4-(4-((5-(2,4-difluoro-5-methylphenyl)imdazo [1,2-a]pyrazin-8-yl)amino)-1H-pyrazol-1-yl)piperidin-1-yl)ethyl)piperazin-1-yl)-3-fluorophenyl)piper idine-2,6-dione]
8 | – | 24 | 0.54 | O=C1CCC(c2ccc(N3CCN(CCN4CCC(n5cc(Nc6ncc(C7=CCCC7)n7ccnc67)cn5)CC4)CC3)cc2)C(=O)N1 (centres unmarked) [Compound 68, 3-(4-(4-(2-(4-(4-((5-(cyclopent-1-en-1-yl)imidazo[1,2-a]pyrazin-8-yl)amino)-1H-pyrazol-1-yl)piperidin-1-yl)ethyl)piperazin-1-yl)phenyl) piperidine-2,6-dione]
9 | 24 | – | – | Cc1nc(Nc2cnn(C3CCN(CCN4CCN(c5ccc(C6CCC(=O)NC6=O)cc5)CC4)CC3)c2)c2nccn2c1C (centres unmarked) [Compound 84, 3-(4-(4-(2-(4-(4-((5,6-dimethylimidazo[1,2-a]pyrazin-8-yl)amino)-1H-pyrazol-1-yl)piperidin-1-yl)ethyl)piperazin-1-yl)phenyl)piperidine-2,6-dione]
10 | 25 | – | – | O=C1CCC(c2ccc(N3CCN(CCN4CCC(n5cc(Nc6ncc(-c7ccc8c(c7)CC8)n7ccnc67)cn5)CC4)CC3)cc2)C(=O)N1 (centres unmarked) [Compound 85, 3-(4-(4-(2-(4-(4-((5-(bicyclo[4.2.0]octa-1(6),2,4-trien-3-yl)imidazo[1,2-a]pyrazin-8-yl)amino)-1H-pyrazol-1-yl)piperidin-1-yl)ethyl)piperazin-1-yl)phenyl) piperidine-2,6-dione]

Row | Structure (SMILES) | IC50 (IRAK3) [nM] | IRAK3 ePL degradation Ymin (IRAK3-ePL) [%] | DC50 (IRAK3-ePL) [nM]
11 | Cc1cc(-c2cnc(Nc3cnn([C@H]4C[C@H](CCN5CCN(c6ccc(C7CCC(=O)NC7=O)cc6)CC5)C4)c3)c3nccn23)c(F)cc1F (stereo partly drawn) [Compound 66, 3-(4-(4-(2-((trans)-3-(4-((5-(2,4-difluoro-5-methylphenyl)imidazo[1,2-a]pyrazin-8-yl)amino)-1H-pyrazol-1-yl)cyclobutyl)ethyl)piperazin-1-yl)phenyl) piperidine-2,6-dione] | – | 32 | 9.6
12 | Cc1cc(-c2cnc(Nc3cnn([C@H]4CC[C@H](CN5CCN(c6ccc(C7CCC(=O)NC7=O)cc6)CC5)CC4)c3)c3nccn23)c(F)cc1F (stereo partly drawn) [Compound 67, 3-(4-(4-(((trans)-4-(4-((5-(2,4-difluoro-5-methylphenyl)imidazo[1,2-a]pyrazin-8-yl)amino)-1H-pyrazol-1-yl)cyclohexyl)methyl)piperazin-1-yl)phenyl) piperidine-2,6-dione] | – | 38 | 5.5
